# Laboratory results published in ChEMBL document CHEMBL5614434, “A Lysosome-Targeting hNEU1 Inhibitor Treats Myocardial Infarction: A Potential Therapeutic Breakthrough” (J Med Chem, 2024).
# What was measured:
# [1] = Drug localization in lysosome of rat H9c2 cells by confocal microscopy based analysis; format: ADME, subcellular
# [2] = Drug localization in Mitochondria of rat H9c2 cells by confocal microscopy based analysis; format: ADME
# H9c2 = test: Cytotoxicity against rat H9c2 cells assessed as cell viability at 0.001 to 50 uM under normoxia condition by CCK-8 method; format: toxicity, cell-based; settings: h9c2, 50 µM, dose 0.001-50 µM
compound,measurement,setting,value
CCC(CC)O[C@@H]1C=C(C(=O)OCCN2CCOCC2)C[C@H](NC(=S)Nc2ccc3c(c2)C(=O)OC32c3ccc(O)cc3Oc3cc(O)ccc32)[C@H]1NC(C)=O,Drug uptake,[1],Active
same,Drug uptake,[2],Active
CCC(CC)O[C@@H]1C=C(C(=O)OCCN2CCNCC2)C[C@H](N)[C@H]1NC(C)=O,Activity,H9c2,Non-Toxic
